Structures are written as SMILES. Bounds are passed on as bounds.

Test [1] relates to Lethal Toxin (LT; PA + LF). Details: species or system Fischer 344 rats. The note with it: rat, in vivo.
For test [2], the target named is anthrax lethal factor (LF) (Bacillus anthracis, UniProt P15917). It is filed as biochemical.
anthrax lethal factor (LF), sequence (P15917 34-809 limits assumed): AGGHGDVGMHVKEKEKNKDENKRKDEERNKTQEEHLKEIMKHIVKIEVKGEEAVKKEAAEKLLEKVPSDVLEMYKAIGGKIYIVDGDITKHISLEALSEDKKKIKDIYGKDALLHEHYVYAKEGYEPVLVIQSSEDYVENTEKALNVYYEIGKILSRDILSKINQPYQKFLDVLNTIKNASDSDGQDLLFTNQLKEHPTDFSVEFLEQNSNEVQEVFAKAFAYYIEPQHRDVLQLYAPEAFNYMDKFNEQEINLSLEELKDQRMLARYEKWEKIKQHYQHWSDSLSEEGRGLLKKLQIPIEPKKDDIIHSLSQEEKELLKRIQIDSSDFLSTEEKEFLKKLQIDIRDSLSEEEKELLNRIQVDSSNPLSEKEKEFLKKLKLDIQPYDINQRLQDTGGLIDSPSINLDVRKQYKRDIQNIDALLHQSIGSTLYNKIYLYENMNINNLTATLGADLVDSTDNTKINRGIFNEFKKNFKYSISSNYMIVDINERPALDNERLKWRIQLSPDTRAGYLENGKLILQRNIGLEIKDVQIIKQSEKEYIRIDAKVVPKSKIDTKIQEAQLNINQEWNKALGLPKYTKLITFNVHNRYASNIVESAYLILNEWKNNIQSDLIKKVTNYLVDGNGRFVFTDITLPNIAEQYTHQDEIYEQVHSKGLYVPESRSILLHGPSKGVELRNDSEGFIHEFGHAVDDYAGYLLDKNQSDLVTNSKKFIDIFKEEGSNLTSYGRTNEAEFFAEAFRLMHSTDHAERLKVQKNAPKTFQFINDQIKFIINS

For `Cc1cc(CNCCCC[C@@H](Nc2cc(C)c(F)c(C)c2)C(=O)NO)ccc1F` [Compound 16], in test [1], the protection result is “fully protective” and the “protection (percent survival)” value turned out to be 100%. Besides, in test [1] (2.5 mg/kg), the “time after treatment with LT at which animals became ill” value is reported as “approximately 3 hours” and the “time post exposure by which animals appeared fully recovered” value was at most 24 h.

Take `CO[C@H](C[C@H](CCN(C)CCCc1ccc(F)c(C)c1)C(=O)NO)c1ccc(F)cc1` [Compound 40]: the “mode of inhibition (kinetic studies)” value in test [2] is reported as “competitive behavior”.

The values above are taken from publication PMC2965585 (Bioorganic & medicinal chemistry letters, 2010).
